Conditions: 6 hours after intravenous administration, B16F10 tumor-bearing mice

- fraction still residing in the blood stream: 0.3%
SMILES: C[C@@H]1C[C@H]2[C@@H]3CCC4=CC(=O)C=C[C@]4(C)[C@@]3(F)[C@@H](O)C[C@]2(C)[C@@]1(O)C(=O)CO [free dexamethasone, dexamethasone]
